Test results reported in the supplement of paper PMC10307832.

compound: COc1cccc2cc(-c3nc([C@H]4CC[C@H](C(=O)O)CC4)n4ncnc(N)c34)[nH]c12 [OSI-027] + Cc1nc(Nc2ncc(C(=O)Nc3c(C)cccc3Cl)s2)cc(N2CCN(CCO)CC2)n1 [Dasatinib] (partner 0.075 µM); assay: relative viability (nuclei count vs DMSO), 5 days (fraction); higher = more cells survive; conditions: first compound 1 µM
Outline: (§1)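 Relative viability divides the nuclei count in treated wells by that in vehicle wells. Lung cancer cell lines were seeded in 1536-well plates, dosed by pin tool the next day, and fixed and stained after 5 days in one step with final 0.05% Triton X-100, 1% formaldehyde and 1 ug/ml Hoechst. Dosing was a single drug or a fixed anchor-drug dose plus five library-drug doses (not always all listed) in √10 steps, and values are medians of duplicate plates imaged at 4×.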

| Cell Line | relative viability |
| --- | --- |
| CAL-12T | 0.148 |
| COR-L 105 | 0.243 |
| LCLC-97TM1 | 0.573 |
| NCI-H520 | 0.129 |
| NCI-H2228 | 0.24 |
| NCI-H23 | 0.46 |
| HCC-827 | 0.222 |
| NCI-H2347 | 0.268 |
| LXF-289 | 0.102 |

compound: Cc1nc(NC(=O)N2CCC[C@H]2C(N)=O)sc1-c1ccnc(C(C)(C)C(F)(F)F)c1 [Alpelisib] + Cc1cc(Nc2cc(N3CCN(C)CC3)nc(Sc3ccc(NC(=O)C4CC4)cc3)n2)n[nH]1 [Tozasertib] (partner 0.1 µM); assay: as above; conditions: first compound 0.04 µM
Outline: as §1

| Cell Line | relative viability |
| --- | --- |
| NCI-H2085 | 0.825 |
| NCI-H727 | 0.749 |
| NCI-H647 | 0.416 |
| HARA | 0.109 |
| NCI-H3122 | 0.334 |
| NCI-H358 | 0.111 |
| CAL-12T | 0.295 |
| COR-L 105 | 0.372 |
| LCLC-97TM1 | 0.206 |
| NCI-H520 | 0.449 |
| NCI-H2228 | 0.224 |
| NCI-H23 | 0.39 |
| HCC-827 | 0.462 |
| NCI-H2347 | 0.649 |
| LXF-289 | 0.21 |

same assay, conditions: first compound 0.1265 µM

| Cell Line | relative viability |
| --- | --- |
| NCI-H2085 | 0.718 |
| NCI-H727 | 0.584 |
| NCI-H647 | 0.322 |
| HARA | 0.074 |
| NCI-H3122 | 0.387 |
| NCI-H358 | 0.114 |
| CAL-12T | 0.308 |
| COR-L 105 | 0.343 |
| LCLC-97TM1 | 0.176 |
| NCI-H520 | 0.461 |
| NCI-H2228 | 0.173 |
| NCI-H23 | 0.428 |
| HCC-827 | 0.409 |
| NCI-H2347 | 0.582 |
| LXF-289 | 0.182 |

same assay, conditions: first compound 0.4 µM

| Cell Line | relative viability |
| --- | --- |
| NCI-H2085 | 0.907 |
| NCI-H727 | 0.641 |
| NCI-H647 | 0.419 |
| HARA | 0.107 |
| NCI-H3122 | 0.35 |
| NCI-H358 | 0.116 |
| CAL-12T | 0.246 |
| COR-L 105 | 0.591 |
| LCLC-97TM1 | 0.178 |
| NCI-H520 | 0.462 |
| NCI-H2228 | 0.231 |
| NCI-H23 | 0.459 |
| HCC-827 | 0.508 |
| NCI-H2347 | 0.682 |
| LXF-289 | 0.249 |

same assay, conditions: first compound 1.265 µM

| Cell Line | relative viability |
| --- | --- |
| NCI-H2085 | 0.762 |
| NCI-H727 | 0.575 |
| NCI-H647 | 0.102 |
| HARA | 0.0657 |
| NCI-H3122 | 0.255 |
| NCI-H358 | 0.0852 |
| CAL-12T | 0.212 |
| COR-L 105 | 0.306 |
| LCLC-97TM1 | 0.146 |
| NCI-H520 | 0.351 |
| NCI-H2228 | 0.204 |
| NCI-H23 | 0.302 |
| HCC-827 | 0.398 |
| NCI-H2347 | 0.39 |
| LXF-289 | 0.134 |

same assay, conditions: first compound 4 µM

| Cell Line | relative viability |
| --- | --- |
| NCI-H2085 | 0.746 |
| NCI-H727 | 0.459 |
| NCI-H647 | 0.26 |
| HARA | 0.0666 |
| NCI-H3122 | 0.263 |
| NCI-H358 | 0.0831 |
| CAL-12T | 0.317 |
| COR-L 105 | 0.334 |
| LCLC-97TM1 | 0.117 |
| NCI-H520 | 0.309 |
| NCI-H2228 | 0.139 |
| NCI-H23 | 0.255 |
| HCC-827 | 0.366 |
| NCI-H2347 | 0.361 |
| LXF-289 | 0.128 |

compound: CCCS(=O)(=O)Nc1ccc(F)c(C(=O)c2c[nH]c3ncc(-c4ccc(Cl)cc4)cc23)c1F [Vemurafenib] + C[C@@H](Oc1cc(-c2cnn(C3CCNCC3)c2)cnc1N)c1c(Cl)ccc(F)c1Cl [Crizotinib] (partner 1 µM); assay: as above; conditions: first compound 0.03162 µM
Outline: as §1

| Cell Line | relative viability |
| --- | --- |
| NCI-H2085 | 0.875 |
| NCI-H727 | 0.793 |
| NCI-H647 | 1.03 |
| HARA | 1.04 |
| NCI-H3122 | 0.266 |
| NCI-H358 | 0.619 |
| CAL-12T | 0.759 |
| COR-L 105 | 0.623 |
| LCLC-97TM1 | 0.287 |
| NCI-H520 | 0.659 |
| NCI-H2228 | 0.428 |
| NCI-H23 | 0.468 |
| HCC-827 | 0.825 |
| NCI-H2347 | 0.655 |
| LXF-289 | 0.783 |

same assay, conditions: first compound 0.1 µM

| Cell Line | relative viability |
| --- | --- |
| NCI-H2085 | 0.841 |
| NCI-H727 | 0.623 |
| NCI-H647 | 0.963 |
| NCI-H3122 | 0.263 |
| CAL-12T | 0.644 |
| LCLC-97TM1 | 0.246 |
| NCI-H520 | 0.755 |
| NCI-H2228 | 0.417 |
| NCI-H23 | 0.541 |
| NCI-H2347 | 0.657 |
| LXF-289 | 0.796 |

same assay, conditions: first compound 0.3162 µM

| Cell Line | relative viability |
| --- | --- |
| NCI-H2085 | 0.822 |
| NCI-H727 | 1.2 |
| NCI-H647 | 0.884 |
| HARA | 1.09 |
| NCI-H3122 | 0.383 |
| NCI-H358 | 0.72 |
| CAL-12T | 0.592 |
| COR-L 105 | 0.661 |
| LCLC-97TM1 | 0.301 |
| NCI-H520 | 0.765 |
| NCI-H2228 | 0.688 |
| NCI-H23 | 0.654 |
| HCC-827 | 0.924 |
| NCI-H2347 | 0.397 |
| LXF-289 | 0.838 |

same assay, conditions: first compound 1 µM

| Cell Line | relative viability |
| --- | --- |
| NCI-H2085 | 0.783 |
| NCI-H727 | 0.954 |
| NCI-H647 | 0.713 |
| HARA | 1.07 |
| NCI-H3122 | 0.211 |
| NCI-H358 | 0.528 |
| CAL-12T | 0.689 |
| COR-L 105 | 1.13 |
| LCLC-97TM1 | 0.278 |
| NCI-H520 | 0.703 |
| NCI-H2228 | 0.469 |
| NCI-H23 | 0.465 |
| HCC-827 | 0.863 |
| NCI-H2347 | 0.69 |
| LXF-289 | 0.87 |
